Patent publication US10925858B2, “S-nitrosoglutathione (GSNO) and GSNO reductase inhibitors for use in therapy” (MUSC FOUNDATION FOR RESEARCH DEVELOPMENT, priority 2017, dated 2021)

How the values were obtained:
[1] = tested on: 3-nitrotyrosine; assay: Nitrotyrosine levels in spinal cords of EAE mice, Western; type: in vivo, C57BL/6J mice; conditions: day 24 post-immunization; GSNO 1 mg/kg/day or FeTPPS 30 mg/kg/day i.p.
Protocol: Western immunoblot analysis was performed by standard method using 50 μg of cell lysates. Following the SDS-PAGE electrophoresis, proteins were transferred from the gel onto the Polyvinylidene fluoride membrane (GE Healthcare Life Sciences, Marlborough, Mass.). […]
EAE was induced as described previously (Nath et al., 2009). […] The group size was determined by power analysis based on our previous data (Nadi et al., 2009). […] Clinical signs of EAE were scored in animal facility in a blinded fashion to experimenter between 2 and 4 pm daily by examiners blinded to experimental treatments using the following scale: 0=no clinical signs of disease; 1=limp tail or waddling gait with tail tonicity; 2=waddling gait with limp tail (ataxia); 2.5=ataxia with partial limb paralysis; 3=full paralysis of one limb; 3.5=full paralysis of one limb with partial paralysis of second limb; 4=full paralysis of two limbs; 4.5=moribund stage; 5=death. […]

[2] = tested on: intracellular Ca^2+ ([Ca^2+]i) influx; assay: Assay for intracellular Ca2+ influx in thrombin treated hBMVECs; type: cell-based, human; conditions: thrombin 0.1 unit/ml; L-NIO or FeTPPS 10 μM; GSNO or SIN-1 various concentrations
Protocol: Cell culture: Primary human brain microvascular endothelial cells (hBMVECs) were purchased from Angio-Proteomie (Cat #: cAP-0002, Atlanta, Ga.). The cells were cultured in cell culture flasks or plates precoated with Quick Coating Solution (Angio-Proteomie; Cat #: cAP-01) and maintained in Endothelial Growth Medium (Angio-Proteomie; Cat #: cAP-02) at 37° C. under 5% CO2/95% air. When the cells were almost confluent, the medium was replaced with endothelial basal medium (Angio-Proteomie; Cat #: cAP-03) containing 0.5% fetal bovine serum (FBS; Life Technologies, Grand Island, N.Y.) about 8-12 hours before the experiment. No institutional approval was required for this study. The study was not pre-registered. Intracellular Ca^2+ concentration ([Ca^2+]i) was measured with Fluo-4 Direct Calcium Assay Kit (Thermo Fisher Scientific, Cat #: F10471, Grand Island, N.Y.). Briefly, culture medium in the 96-well plate was replaced with a Ca^2+ sensitive dye Fluo-4 in an endothelial basal medium. After 30 min incubation, the dye was removed and cells were incubated with the original medium with or without the drugs at 37° C. for 15 min. Following thrombin treatment, time course changes of fluorescent intensity were quantified using a CLARIOstar multi-well fluorometer (BMG Labtech, Cary, N.C.).

[3] = tested on: mononuclear cells; assay: H&E staining, spinal cord infiltration of mononuclear cells in EAE mice; type: in vivo, C57BL/6 mice; conditions: 1 mg/kg/day
Protocol: Female C57BL/6 mice of 8-12 weeks of age, purchased from Jackson Laboratory, were provided with food and water ad libitum and were kept in pathogen free animal care facility of Medical University of South Carolina (MUSC) throughout the study. All procedures were conducted in accordance with accepted standards of humane care as approved by the Institutional Animal Care and Use Committee (Approved number: AR #1644). EAE was induced as described previously (Nath et al., 2009). Briefly, mice were immunized subcutaneously in the flank regions with MOG35-55 peptide (MOG; 200 μg; Peptide International) emulsified (1:1) in 100 ul complete Freund's adjuvant (CFA) on day 0 and day 7. Additionally, 300 ng of Pertussis toxin (Sigma-Aldrich, St. Louis, Mo.) was given on day 0 and day 2 by i.p. injection. […] Clinical signs of EAE were scored by examiners blinded to experimental treatments using the following scale: 0=no clinical signs of disease; 1=piloerection and sluggish; 2=limp tail (ataxia); 2.5=ataxia with partial hind limb paralysis; 3=full paralysis of hind limb; 3.5=full paralysis of hind limb with paralysis of one fore limb; 4=full paralysis of two limbs; 4.5=moribund stage; 5=death. […]
Tissue samples were embedded in paraffin block and sectioned transversely (5 μm-thick). […] For the quantitation of infiltrates, the digital images were analyzed by ImageJ (NIH, Bethesda, Md.). […]

Row | Compound | EAE-induced nitrotyrosine levels in spinal cords [1] | thrombin-induced intracellular Ca2+ influx [2] | spinal cord infiltration of mononuclear cells [3]
1 | Cl.O=S(=O)([O-])c1ccc(-c2c3nc(c(-c4ccc(S(=O)(=O)O)cc4)c4ccc([nH]4)c(-c4ccc(S(=O)(=O)O)cc4)c4nc(c(-c5ccc(S(=O)(=O)O)cc5)c5ccc2[nH]5)C=C4)C=C3)cc1.[Fe] [FeTPPS, 5,10,15,20-Tetrakis(4-sulfonatophenyl)porphyrinato Iron (III), Cl, reference compound] | significantly decreased | had not effect | –
2 | Cc1cc(C(N)=O)ccc1-n1c(CCC(=O)O)ccc1-c1ccc(-n2ccnc2)cc1 [N6022, reference compound] | – | – | significantly reduced
3 | N[C@@H](CCC(=O)N[C@@H](CSN=O)C(=O)NCC(=O)O)C(=O)O [GSNO, S-nitrosoglutathione] | significantly decreased | inhibited | reduced
